Test results as given in patent US11045480B2, “Anti-huLRRC15 antibody drug conjugates and methods for their use” (AbbVie Inc., priority 2015, dated 2021).

Experiments:
Assay type in all cases: in vivo, mouse
[1] = system: SCC-15 head and neck cancer xenograft; test: SCC-15 xenograft tumor growth; conditions: for TGD, single agent / TGImax, single agent: SCC-15, SCID mice
Description: Radiation is a commonly used cytotoxic therapy in oncology. […] SCC-15 head and neck cancer cells (1 million) were implanted subcutaneously into SCID mice, and mice were randomized when the tumors reached ˜200 mm^3 and dosed with biologics at 12 mg/kg intraperitoneally on a Q4D×6 (one dose given every 4 days for a total of 6 doses), while the radiation was directed at the tumor with a single radiation dose of 15 Gy on day 0.
SCC-15 head and neck cancer cells (1 million) were implanted subcutaneously into SCID mice, and mice were randomized when the tumors reached ˜200 mm^3 and dosed with biologics at 12 mg/kg intraperitoneally on a Q7D×6 (one dose given every 7 days for a total of 6 doses), while carboplatin was dosed intraperitoneally […] at 50 mg/kg Q4D×4 (one dose given every 4 days for a total of 4 doses).

[2] = system: EBC-1 tumors; test: Ex vivo analysis (flow cytometry, microscopy, IHC) of treated EBC-1 tumors
Description: For the experiments, 5 million EBC-1 cells grown in vitro were implanted per mouse into the right flank of SCID-beige mice. Tumors were size-matched at ˜300 mm^3 and treated on day 0 and day 4 with 6 mg/kg intraperitoneally for each biologic drug shown in FIG. 15A. Tumors were harvested from the mice in each group 11 days post randomization and start of treatment. Tumors were dissociated into single cell suspensions using Miltenyi Biotec gentleMACS Dissociator according to the manufacturer's guidelines for the dissociation of tough tumors. Dissociated tumor cells were passed through a 70 μm filter, counted, and immediately used for flow cytometry. Single-cell suspensions were resuspended in PBS with 10% FBS and 10 μg/mL FcR block (anti-mouse CD16/CD32, clone 93, eBioscience, Cat. #16-0161.) The following directly conjugated antibodies were used for flow cytometry: human IgG1 κ isotype control (AB095) AF647, anti-huLRRC15 (hu208.4.1a.1a) AF647, anti-FAP (huFAP MAB5) AF647, mouse anti-human CD326 (EPCAM) PE (clone 1B7, eBioscience, Cat. #12-9326), anti-mouse CD11b PE (clone M1/70, eBioscience, Cat. #12-0112), anti mouse CD11c PE (clone N418, eBioscience, Cat. #12-0114), and anti-mouse F4/80 PE (clone BM9, eBioscience, Cat. #12-4801). Ex vivo EBC1 tumor cell suspensions were incubated with fluor-conjugated antibodies for 20 minutes on ice and washed twice using PBS with 1% FBS. Flow cytometry data were collected using a Becton Dickinson FacsCalibur, and data were analyzed using FlowJo™ analysis software (TreeStar). The ex vivo flow cytometry data (FIGS. 15B-15E) are shown as a percentage of cells gated positive for each antigen relative to total live cells gated via FSC/SCC. It should be noted that percentages reported are relative values to the total ex vivo EBC1 tumor and that a reduction in one cell population (e.g., EPCAM positive cancer cells) would result in an inverse increase in remaining cell populations when this analysis method is used.
Dissociated single-cell suspensions of the ex vivo EBC1 tumors shown in FIG. 15A were seeded at 120,000 live cells into tissue culture microscopy chamber slides. Cells were allowed to sit and incubate for 48 hours, and then fixed in 2% paraformaldehyde for 15 min at 37° C. The cells were washed with PBS and permeabilized using 0.3% Triton-X in PBS at 37° C. for 30 min. Cells were washed with PBS and blocked in 5% BSA for 30 min at 37° C. Cells were incubated with anti-α-SMA (clone 1A4 DAKO, Cat. #36962) and then detected with AlexaFluor AF594 (Life Technologies, Cat. #A21203) secondary antibody (2 μg/mL) for 30 min at 37° C. Subsequently, cells were stained using anti-human EpCAM-AF488 (Cell Signaling Technology, Cat. #5198) and washed 3× in PBS. Finally the slides were removed from the chambers and mounted with a coverslip using ProLong Diamond Anti-Fade with DAPI (Life Technologies, Cat. #36962). Image acquisition was performed using Zeiss Axiovision Software on a Zeiss Axiovert 200M inverted fluorescent microscope. Statistical differences between groups were determined using unpaired T tests in GraphPad Prism™. […] The percentage of pHH3 positive cells decreased with additional dosing and longer time (FIG. 15H) correlating with cancer cell death and tumor shrinkage (FIG. 15A).

[3] = system: EBC-1 (human squamous NSCLC) xenograft; test: EBC-1 xenograft tumor growth; conditions: EBC-1, SCID/Beige mice; huM25-vcMMAE-E2 at 3 mg/kg (method: biologics 6 mg/kg IP Q7D×2); method: gemcitabine 100 mg/kg IP Q3D×3, result sentence names docetaxel (FIG. 21B)
[4] = biologics 12 mg/kg IP Q4D×6 (FIG. 21D)
[5] = biologics 12 mg/kg IP Q7D×6, carboplatin 50 mg/kg IP Q4D×4 (FIG. 21E)
[6] = SCC-15, ADC 12 mg/kg IP Q4D×6 plus single radiation dose of 15 Gy on day 0 (FIG. 21D)
[7] = SCC-15, ADC 12 mg/kg IP Q7D×6 plus carboplatin 50 mg/kg IP Q4D×4 (FIG. 21E)
[8] = EBC-1 tumors, 6 mg/kg IP day 0 and 4, harvested day 11 (FIG. 15F)

For “huM25-vcMMAE-E2: huM25 conjugated with maleimidocaproyl val-cit PABA MMAE, preparation enriched in DAR2 by HIC”, the “TGD, single agent” value [1, 4] was 44%, the “TGImax, single agent” value [1, 4] was 58% and the “TGD, single agent” value [1, 5] was 44%. For the same substance, the “TGImax, single agent” value [1, 5] was 58%, the “TGD, used adjunctively with radiation” value [1, 6] was 219% and the “TGImax, used adjunctively with radiation” value [1, 6] was 90%. The “TGD, used adjunctively with carboplatin” value [1, 7] was 83%, the “TGImax, used adjunctively with carboplatin” value [1, 7] was 86% and the “cancer cells in ex vivo tumor (microscopy count)” value [2, 8] was “significant decrease”. The “fibroblast population in ex vivo tumor” value [2, 8] was “continued to persist”, the “phosphohistone H3 (pHH3) staining, mitotic figures” value ([2]; EBC-1 tumors, 6 mg/kg, after 72 hours (FIG. 15G)) was “higher number of mitotic figures” and the “staining for CD45 and F4/80” value ([2]; EBC-1 tumors, day 11 post-treatment, 6 mg/kg, compared with isotype ADC (FIG. 15I)) was “enhanced staining”. For the same substance, the “immune infiltrate (CD11c or F4/80 positive cells)” value ([2]; ex vivo flow cytometry of EBC-1 tumors post treatment (FIGS. 15D-15E)) was “increase in immune infiltrate” and the “TGImax, single agent” value [3] was 91%.
